What is called IC50 is the concentration that gives 50% inhibition.

Structures are written as SMILES.

Assay [1] has as its target T1, NIH3T3 cells expressing the full length KDR receptor (Homo sapiens, UniProt P35968).
T1 construct: NIH3T3 cells expressing the full length KDR receptor; expressed in transfected cells; host or cells: NIH3T3 cells (G418 selection)
The experiment in a line: Cell mechanistic assay - Inhibition of 3T3 KDR phosphorylation. It is filed as cell-based. The following applies: VEGF (30 ng / ml) for 10 minutes after 30 minutes with compound; KDR phosphotyrosine ELISA. The method, then: NIH3T3 cells expressing the full length KDR receptor were grown in DMEM (Life Technologies, Inc., Grand Island, NY) supplemented with 10% newborn calf serum, low glucose, 25 mM /L sodium pyruvate, pyridoxine hydrochloride and 0.2 mg/ ml of G418 (Life Technologies Inc., Grand Island, NY). The cells were maintained in collagen I-coated T75 flasks (Becton Dickinson Labware, Bedford, MA) in a humidified 5% CO2 atmosphere at 37°C.
Fifteen thousand cells were plated into each well of a collagen I-coated 96-well plate in the DMEM growth medium. Six hours later, the cells were washed and the medium was replaced with DMEM without serum. After overnight culture to quiesce the cells, the medium was replaced by Dulbecco's phosphate-buffered saline (Life Technologies Inc., Grand Island, NY) with 0.1% bovine albumin (Sigma Chemical Co., St Louis, MO). After adding various concentrations (0-300 nM) of test compounds to the cells in 1% final concentration of DMSO, the cells were incubated at room temperature for 30 minutes. The cells were then treated with VEGF (30 ng / ml) for 10 minutes at room temperature. Following VEGF stimulation, the buffer was removed and the cells were lysed by addition of 150 µl of extraction buffer (50 mM Tris, pH 7.8, supplemented with 10% glycerol, 50 mM BGP, 2 mM EDTA, 10 mM NaF, 0.5 mM NaVO4, and 0.3% TX-100) at 4°C for 30 minutes.
To assess receptor phosphorylation, 100 microliters of each cell lysate was added to the wells of an ELISA plate precoated with 300 ng of antibody C20 (Santa Cruz Biotechnology, Inc., Santa Cruz , CA). Following a 60-minute incubation, the plate was washed and bound KDR was probed for phosphotyrosine using an anti-phosphotyrosine mAb clone 4G10 (Upstate Biotechnology, Lake Placid, NY). The plate was washed and wells were incubated with anti-mouse IgG/HRP conjugate (Amersham International plc, Buckinghamshire, England) for 60 minutes. Wells were washed and phosphotyrosine was quantitated by addtion of 100 µl per well of 3,3',5,5' tetramethylbenzidine (Kirkegaard and Perry, TMB Microwell 1 Component peroxidase substrate) solution. Color development was arrested by the addition of 100 µl 1% HCl based stop solution (Kirkegaard and Perry, TMB 1 Component Stop Solution).
Optical densities (OD) were determined spectrophotometrically at 450 nm in a 96-well plate reader (SpectraMax 250, Molecular Devices). Background (no VEGF added) OD values were subtracted from all ODs and percent inhibition was calculated according to the equation: % Inhibition =((OD(VEGF control) - OD(with test compound)) X 100)/(OD(VEGF control) - OD(no VEGF added)) [formula]
IC50s were determined with a least squares analysis program using compound concentration versus percent inhibition. Compounds that have IC50 < 20 nM in this assay include those of Examples 2, 6, 7, 11, 15 and 16. Compounds that have IC50 values between 20 nM and 50 nM include those of examples 1, 4, 5, 8, 10, 12, 13 and 14. Those that have measured IC50 values > 50 nM include those of examples 9 and 21.
On the technique in general: ELISA stands for enzyme-linked immunosorbent assay.

Assay [2] concerns SK-MEL2 human tumor cells that were transfected with a plasmid containing the murine VEGF gene. Briefly: Matrigel Angiogenesis Model (hemoglobin content of Matrigel plugs). It is filed as in vivo, Mice. The following applies: 30, 100 and 300 mg/kg po sid; 12 days post-implantation; vs. vehicle control animals. The protocol:
Preparation of Matrigel Plugs and in vivo Phase: Matrigel® (Collaborative Biomedical Products, Bedford, MA) is a basement membrane extract from a murine tumor composed primarily of laminin, collagen IV and heparan sulfate proteoglycan. It is provided as a sterile liquid at 4° C, but rapidly forms a solid gel at 37° C.
Liquid Matrigel at 4° C was mixed with SK-MEL2 human tumor cells that were transfected with a plasmid containing the murine VEGF gene with a selectable marker. Tumor cells were grown in vitro under selection and cells were mixed with cold liquid Matrigel at a ratio of 2 X 10^6 per 0.5 ml. […]
Optical densities were determined spectrophotometrically at 600 nm in a 96-well plate reader, SpectraMax 250 Microplate Spectrophotometer System (Molecular Devices, Sunnyvale, CA). Background Lysis Buffer readings were subtracted from all wells.
Total sample hemoglobin content was calculated according to the following equation: Total Hemoglobin = (Sample Lysate Volume) x (Hemoglobin Concentration) [formula]
The average Total Hemoglobin of Matrigel samples without cells was subtracted from each Total Hemoglobin Matrigel sample with cells. Percent inhibition was calculated according to the following equation: % Inhibition =((Average Total Hemoglobin Drug-Treated Tumor Lysates) X 100)/((Average Total Hemoglobin Non-Treated Tumor Lysates)) [formula]

T1 sequence (P35968 20-1356): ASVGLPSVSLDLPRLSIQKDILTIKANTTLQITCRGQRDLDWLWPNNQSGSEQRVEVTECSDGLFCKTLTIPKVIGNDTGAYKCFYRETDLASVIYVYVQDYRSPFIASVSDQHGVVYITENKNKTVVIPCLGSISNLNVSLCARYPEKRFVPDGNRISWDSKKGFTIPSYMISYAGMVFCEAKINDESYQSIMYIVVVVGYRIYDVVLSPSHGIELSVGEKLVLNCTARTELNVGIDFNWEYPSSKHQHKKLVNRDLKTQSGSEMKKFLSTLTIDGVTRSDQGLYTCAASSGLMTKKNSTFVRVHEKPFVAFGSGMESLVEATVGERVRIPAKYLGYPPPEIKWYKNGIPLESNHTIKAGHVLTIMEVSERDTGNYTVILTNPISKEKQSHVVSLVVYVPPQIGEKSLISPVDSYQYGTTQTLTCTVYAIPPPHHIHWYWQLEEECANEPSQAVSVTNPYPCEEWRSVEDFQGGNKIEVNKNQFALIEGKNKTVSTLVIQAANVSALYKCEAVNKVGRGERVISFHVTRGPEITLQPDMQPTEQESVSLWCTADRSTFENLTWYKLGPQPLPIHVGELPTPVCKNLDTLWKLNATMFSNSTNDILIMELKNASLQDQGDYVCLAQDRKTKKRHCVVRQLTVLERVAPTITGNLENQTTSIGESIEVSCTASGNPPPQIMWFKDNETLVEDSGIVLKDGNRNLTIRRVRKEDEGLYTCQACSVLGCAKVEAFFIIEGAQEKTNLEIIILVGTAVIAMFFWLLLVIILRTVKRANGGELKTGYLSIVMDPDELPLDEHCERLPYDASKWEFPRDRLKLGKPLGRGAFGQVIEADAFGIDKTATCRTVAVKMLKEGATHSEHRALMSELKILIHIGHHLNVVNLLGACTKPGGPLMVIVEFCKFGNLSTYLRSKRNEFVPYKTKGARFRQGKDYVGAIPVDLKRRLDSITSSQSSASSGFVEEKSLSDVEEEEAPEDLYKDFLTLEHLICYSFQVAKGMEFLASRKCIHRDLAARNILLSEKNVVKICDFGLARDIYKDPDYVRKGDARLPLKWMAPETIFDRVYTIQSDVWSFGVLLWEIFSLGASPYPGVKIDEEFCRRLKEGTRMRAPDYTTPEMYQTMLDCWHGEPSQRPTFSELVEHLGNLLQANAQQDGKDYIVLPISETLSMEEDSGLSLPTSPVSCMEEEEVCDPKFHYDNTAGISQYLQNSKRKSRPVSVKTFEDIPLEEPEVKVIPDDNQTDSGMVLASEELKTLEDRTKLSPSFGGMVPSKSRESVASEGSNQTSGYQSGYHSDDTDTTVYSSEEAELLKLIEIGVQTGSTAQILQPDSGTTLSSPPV

`NC(=O)c1cc(Cc2nnc(Nc3ccc(Cl)cc3)c3ccccc23)ccn1` [Example 2, 4-[4-(4-Chlorophenylamino)phthalazin-1-ylmethyl]pyridin-2-yl carboxylic acid amide]: the IC50 in assay [1] was below 20 nM. Further, in assay [2], the “inhibition of total hemoglobin content of the Matrigel samples” value is recorded as above 50%.

Source of the values: EP1208096B1, “SUBSTITUTED PYRIDAZINES AND FUSED PYRIDAZINES WITH ANGIOGENESIS INHIBITING ACTIVITY” (Bayer Corporation, priority 1999, dated 2001).
